Each structure is given as a SMILES string. Structures can show the parent of a compound that is named as a salt.

The target in the experiment is T1, recombinant human LTA4 hydrolase (rhLTA4H) (Homo sapiens, UniProt P09960).
T1 construct: made in house; host or cells: Spodoptera frugiperda (Sf-9) cells, baculovirus (pFastBac1)
T1 sequence (P09960 1-611): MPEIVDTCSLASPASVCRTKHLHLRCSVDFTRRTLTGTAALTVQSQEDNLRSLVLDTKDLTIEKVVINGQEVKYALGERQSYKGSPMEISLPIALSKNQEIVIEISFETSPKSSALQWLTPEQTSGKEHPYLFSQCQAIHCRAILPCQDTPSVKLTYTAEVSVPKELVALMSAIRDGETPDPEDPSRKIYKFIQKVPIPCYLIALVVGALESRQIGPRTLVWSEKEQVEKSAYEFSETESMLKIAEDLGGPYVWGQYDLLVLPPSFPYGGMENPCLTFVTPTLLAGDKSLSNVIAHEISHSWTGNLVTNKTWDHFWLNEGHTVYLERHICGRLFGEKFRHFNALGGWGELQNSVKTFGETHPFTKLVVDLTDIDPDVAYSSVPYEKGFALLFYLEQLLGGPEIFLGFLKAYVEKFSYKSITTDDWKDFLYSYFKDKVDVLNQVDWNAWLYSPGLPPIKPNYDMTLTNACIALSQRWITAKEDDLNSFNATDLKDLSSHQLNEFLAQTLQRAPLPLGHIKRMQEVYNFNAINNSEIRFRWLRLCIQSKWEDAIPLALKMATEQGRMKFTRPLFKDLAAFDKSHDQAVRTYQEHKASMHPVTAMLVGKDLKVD
Description: Recombinant Human LTA4 Hydrolase Assay for LTA4 Hydrolase Inhibitor Activity. As to conditions: average of results obtained; LTB4 quantified by enzyme-linked immunoassay. Type of experiment: biochemical. On the procedure:
Biological Methods: Recombinant Human LTA4 Hydrolase Assay for LTA4 Hydrolase Inhibitor Activity
Compounds of the present invention were tested for LTA4 hydrolase inhibitor activity against recombinant human LTA4 hydrolase (rhLTA4H). Vectors were prepared and used to express rhLTA4H essentially as follows: LTA4 hydrolase encoding DNA was amplified by polymerase chain reaction (PCR) using a human placental cDNA library as a template. Oligonucleotide primers for the PCR reaction were based on the 5′-end, and the complement of the 3′-end, of the published nucleotide sequence for the coding region of the human LTA4 hydrolase gene (C. D. Funk et al., Proc. Natl. Acad. Sci. USA 1987, 84:6677-6681). The amplified 1.9 kb DNA fragment encoding LTA4 hydrolase was isolated and cloned into the pFastBac1 vector (Invitrogen). Recombinant baculovirus was generated as described by the manufacturer, and used to infect Spodoptera frugiperda (Sf-9) cells. Recombinant LTA4 hydrolase enzyme was purified from the infected Sf-9 cells essentially as described by J. K. Gierse et al. (Protein Expression and Purification 1993, 4:358-366). The purified enzyme solution was adjusted to contain 0.29 mg/mL LTA4 hydrolase, 50 mM Tris (pH 8.0), 150 mM NaCl, 5 mM dithiothreitol, 50% glycerol, and EDTA-free Complete protease inhibitor cocktail (Roche). The specific activity of the enzyme was about 3.8 μmol/min/mg.
LTA4 substrate was prepared from the methyl ester of LTA4 (Cayman Chemical) by treatment with 67 equiv of NaOH under nitrogen at rt for 40 min. The LTA4 substrate in its free acid form was kept frozen at −80° C. until needed. Each compound was diluted to different concentrations in assay buffer (0.1 M potassium phosphate (pH 7.4), 5 mg/mL fatty acid free BSA) containing 10% DMSO. A 25-uL aliquot of each compound dilution was incubated for 10 min at rt with an equal volume of assay buffer containing 36 ng of recombinant human LTA4H. The solution was then adjusted to 200 μL with assay buffer. LTA4 (free acid) was thawed and diluted in assay buffer to a concentration of 357 ng/mL, and 25 μL (9 ng) of LTA4 substrate was added to the reaction mixture (total volume=225 μL) at time zero. Each reaction was carried out at rt for 10 min. The reaction was stopped by diluting 10 μL of the reaction mixture with 200 μL of assay buffer. LTB4 was quantified in the diluted sample by a commercially available enzyme-linked immunoassay (Cayman Chemical Co.), as recommended by the manufacturer. Positive controls, under essentially identical conditions but without addition of an inhibitor compound, and negative controls, containing all assay components except enzyme, were routinely run in each experiment. […]
Results for the compounds tested in this assay are presented in Table 1 as an average of results obtained.
As to `c1ccc2sc(Oc3ccc(CN4CC5CCNC5C4)cc3)nc2c1` (stereo not drawn) [Example 81, 2-[4-(Hexahydro-pyrrolo[3,4-b]pyrrol-5-ylmethyl)-phenoxy]-benzothiazole hydrochloride], the Ki worked out at 162 nM. Consider `O=C(CNC(=O)C(F)(F)F)N1CCC2CN(Cc3ccc(Oc4nc5ccccc5s4)cc3)CC21` (stereo not drawn) [Example 98, N-(2-{5-[4-(Benzothiazol-2-yloxy)-benzyl]-hexahydro-pyrrolo[3,4-b]pyrrol-1-yl}-2-oxo-ethyl)-2,2,2-trifluoro-acetamide], for which the Ki worked out at 40 nM.

For `CS(=O)(=O)N1C[C@@H]2C[C@H]1CN2CCc1ccc(Oc2nc3ccccc3s2)cc1` [Example 47, (S,S)-2-{4-[2-(5-Methanesulfonyl-2,5-diaza-bicyclo[2.2.1]hept-2-yl)-ethyl]-phenoxy}-benzothiazole], the Ki turned out to be 57 nM.

In the case of `CC(=O)N1C[C@@H]2C[C@H]1CN2CCc1cccc(Oc2nc3ccccc3s2)c1` [Example 8, (S,S)-1-(5-{2-[3-(Benzothiazol-2-yloxy)-phenyl]-ethyl}-2,5-diaza-bicyclo[2.2.1]hept-2-yl)-ethanone], the Ki was 206 nM. The result for `NC(=O)N1C[C@@H]2C[C@H]1CN2CCOc1ccc(Oc2nc3ccccc3s2)cc1` [Example 40, (S,S)-5-{2-[4-(Benzothiazol-2-yloxy)-phenoxy]-ethyl}-2,5-diaza-bicyclo[2.2.1]heptane-2-carboxylic acid amide] reads 38 nM; that for `CC(=O)N1C[C@@H]2C[C@H]1CN2CCc1ccc(Oc2nc3c(Cl)cccc3s2)cc1` [Example 253, (S,S)-1-(5-{2-[4-(4-Chloro-benzothiazol-2-yloxy)-phenyl]-ethyl}-2,5-diaza-bicyclo[2.2.1]hept-2-yl)-ethanone], 2600 nM. On to `CS(=O)(=O)N1[C@@H]2CC[C@H]1C[C@H](NCc1ccc(Oc3nc4ccc(F)cc4s3)cc1)C2` [Example 205, meso-exo-[4-(6-Fluoro-benzothiazol-2-yloxy)-benzyl]-(8-methanesulfonyl-8-aza-bicyclo[3.2.1]oct-3-yl)-amine], for which the Ki worked out at 394 nM. `CS(=O)(=O)N1CC2CCC(C1)N2Cc1ccc(Oc2nc3cccc(Cl)c3s2)cc1` [Example 174, meso-7-Chloro-2-[4-(3-methanesulfonyl-3,8-diaza-bicyclo[3.2.1]oct-8-ylmethyl)-phenoxy]-benzothiazole]: the Ki is 196 nM.

Take `CS(=O)(=O)N1CC2CCN(Cc3ccc(Oc4nc5ccccc5s4)cc3)C2C1` (stereo not drawn) [Example 128, 2-[4-(5-Methanesulfonyl-hexahydro-pyrrolo[3,4-b]pyrrol-1-ylmethyl)-phenoxy]-benzothiazole]: the Ki was found to be 120 nM. Regarding `CC(=O)N[C@@H]1C[C@H]2CC[C@@H](C1)N2CCOc1ccc(Oc2nc3ccc(F)cc3s2)cc1` [Example 227, meso-exo-N-(8-{2-[4-(6-Fluoro-benzothiazol-2-yloxy)-phenoxy]-ethyl}-8-aza-bicyclo[3.2.1]oct-3-yl)-acetamide], the Ki is 8 nM. For `NC(=O)N[C@H]1C[C@H]2CC[C@@H](C1)N2Cc1ccc(Cc2nc3ccccc3o2)cc1` [Example 37, meso-endo-[8-(4-Benzooxazol-2-ylmethyl-benzyl)-8-aza-bicyclo[3.2.1]oct-3-yl]-urea] the value was 44 nM. In the case of `CC(=O)N1C[C@H]2C[C@@H]1CN2Cc1ccc(Oc2nc3c(Cl)cccc3s2)cc1` [Example 164, (R,R)-1-{5-[4-(4-Chloro-benzothiazol-2-yloxy)-benzyl]-2,5-diaza-bicyclo[2.2.1]hept-2-yl}-ethanone], the Ki came to 417 nM. In the case of `CS(=O)(=O)N1[C@@H]2CC[C@H]1C[C@@H](NCCc1ccc(Oc3nc4c(F)cccc4s3)cc1)C2` [Example 279, meso-endo-{2-[4-(4-Fluoro-benzothiazol-2-yloxy)-phenyl]-ethyl}-(8-methanesulfonyl-8-aza-bicyclo[3.2.1]oct-3-yl)-amine], the Ki was 21 nM.

For the compound `Cc1noc(C)c1NC(=O)N1CC2CN(Cc3ccc(Oc4nc5ccccc5s4)cc3)CC2C1` (stereo not drawn) [Example 133, 5-[4-(Benzothiazol-2-yloxy)-benzyl]-hexahydro-pyrrolo[3,4-c]pyrrole-2-carboxylic acid (3,5-dimethyl-isoxazol-4-yl)-amide], the Ki turned out to be 20 nM. For `CC(=O)N[C@@H]1C[C@H]2CC[C@@H](C1)N2CCc1ccc(Oc2nc3ccc(Cl)cc3s2)cc1` [Example 163, meso-exo-N-(8-{2-[4-(6-Chloro-benzothiazol-2-yloxy)-phenyl]-ethyl}-8-aza-bicyclo[3.2.1]oct-3-yl)-acetamide] the value was 86 nM; for `O=C(CO)N1CCC2CN(Cc3ccc(Oc4nc5ccccc5s4)cc3)CC2C1` (stereo not drawn) [Example 116, 1-{2-[4-(Benzothiazol-2-yloxy)-benzyl]-octahydro-pyrrolo[3,4-c]pyridin-5-yl}-2-hydroxy-ethanone], 13 nM. For the compound `CC(=O)N1[C@@H]2CC[C@H]1C[C@H](NCc1ccc(Oc3nc4cc(F)ccc4s3)cc1)C2` [Example 165, meso-exo-1-{3-[4-(5-Fluoro-benzothiazol-2-yloxy)-benzylamino]-8-aza-bicyclo[3.2.1]oct-8-yl}-ethanone], the Ki was 414 nM.

With `CS(=O)(=O)N1CC2CCC(C1)N2CCOc1ccc(Oc2nc3cc(Cl)ccc3s2)cc1` [Example 256, meso-5-Chloro-2-{4-[2-(3-methanesulfonyl-3,8-diaza-bicyclo[3.2.1]oct-8-yl)-ethoxy]-phenoxy}-benzothiazole], the Ki stood at 1710 nM. As for `Cn1cnc(S(=O)(=O)N2CC3CN(Cc4ccc(Oc5nc6ccccc6s5)cc4)CC3C2)c1` (stereo not drawn) [Example 122, 2-{4-[5-(1-Methyl-1H-imidazole-4-sulfonyl)-hexahydro-pyrrolo[3,4-c]pyrrol-2-ylmethyl]-phenoxy}-benzothiazole], the Ki stood at 139 nM.

Take `CC(=O)N[C@@H]1C[C@H]2CC[C@@H](C1)N2CCc1ccc(Oc2nc3cc(F)ccc3s2)cc1` [Example 266, meso-exo-N-(8-{2-[4-(5-Fluoro-benzothiazol-2-yloxy)-phenyl]-ethyl}-8-aza-bicyclo[3.2.1]oct-3-yl)-acetamide]: the Ki was found to be 64 nM.

On to `CS(=O)(=O)N1[C@@H]2CC[C@H]1C[C@@H](NCCOc1ccc(Oc3nc4c(Cl)cccc4s3)cc1)C2` [Example 194, meso-endo-{2-[4-(4-Chloro-benzothiazol-2-yloxy)-phenoxy]-ethyl}-(8-methanesulfonyl-8-aza-bicyclo[3.2.1]oct-3-yl)-amine], for which the Ki was determined as 3140 nM.

For the compound `NC(=O)N1CC2CCN(Cc3ccc(Oc4nc5ccccc5s4)cc3)C2C1` (stereo not drawn) [Example 136, 1-[4-(Benzothiazol-2-yloxy)-benzyl]-hexahydro-pyrrolo[3,4-b]pyrrole-5-carboxylic acid amide], the Ki was found to be 24 nM.

Take `NC(=O)N1CCC2CN(Cc3ccc(Oc4nc5ccccc5s4)cc3)CC21` (stereo not drawn) [Example 135, 5-[4-(Benzothiazol-2-yloxy)-benzyl]-hexahydro-pyrrolo[3,4-b]pyrrole-1-carboxylic acid amide]: the Ki amounted to 57 nM. For `CS(=O)(=O)N1[C@@H]2CC[C@H]1C[C@H](NCc1ccc(Oc3nc4cc(Cl)ccc4s3)cc1)C2` [Example 185, meso-exo-[4-(5-Chloro-benzothiazol-2-yloxy)-benzyl]-(8-methanesulfonyl-8-aza-bicyclo[3.2.1]oct-3-yl)-amine] the value was 965 nM.

For the origin of these results see patent US8344008B2 (Janssen Pharmaceutica NV, priority 2007, dated 2013).
